Laboratory results published in US20230159509A1 (Amathus Therapeutics, Inc., priority 2020, published 2023).

Target: T1, TRAP1 enzyme (Homo sapiens, UniProt Q12931)
T1 construct: 150 nM Trap1 enzyme was incubated with various concentrations of the test compound
T1 sequence (Q12931 60-704): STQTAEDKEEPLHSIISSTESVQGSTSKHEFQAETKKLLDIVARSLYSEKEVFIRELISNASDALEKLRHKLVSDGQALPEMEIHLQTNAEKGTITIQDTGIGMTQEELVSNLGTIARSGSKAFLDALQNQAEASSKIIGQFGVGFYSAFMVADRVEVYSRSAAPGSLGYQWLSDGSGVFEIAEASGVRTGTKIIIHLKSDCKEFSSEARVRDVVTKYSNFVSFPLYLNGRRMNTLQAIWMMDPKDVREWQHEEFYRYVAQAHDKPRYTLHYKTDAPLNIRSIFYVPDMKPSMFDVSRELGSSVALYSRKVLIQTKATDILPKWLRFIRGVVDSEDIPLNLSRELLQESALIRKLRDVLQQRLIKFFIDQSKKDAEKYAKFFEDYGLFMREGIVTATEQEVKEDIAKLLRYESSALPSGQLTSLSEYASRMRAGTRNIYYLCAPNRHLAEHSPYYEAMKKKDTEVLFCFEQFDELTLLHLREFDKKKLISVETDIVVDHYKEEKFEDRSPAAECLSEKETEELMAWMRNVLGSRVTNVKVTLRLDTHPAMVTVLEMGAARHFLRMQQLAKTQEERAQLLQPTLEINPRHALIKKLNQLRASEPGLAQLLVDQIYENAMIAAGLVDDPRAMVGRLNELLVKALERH
Experiment: ADP Glo assay of TRAP1 ATPase activity
Assay type: biochemical
Settings: for activation at 50 µM: 1 h, compound concentration 50 μM, read-out: ADP-Glo Percent Activation at 50 μM; for EC50: concentration for half maximal activation, read-out: ADP GLO DRC: GeoMean EC50; for Emax: maximal percent activation, read-out: ADP GLO DRC: Mean Emax
How it was run: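 Compound (0.79–100 μM) was preincubated 30 min at 37° C with 150 nM TRAP1 in 25 mM Pipes pH 7.5, 40 mM KCl, 0.05 mM MgCl2. Reaction started with 20 μM ATP, 60 min at 37° C. ADP measured by luminescence against a standard curve; activation fitted sigmoidally for EC50 and Emax.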

Structure (SMILES)	activation at 50 µM [%]	EC50 [µM]	Emax [%]
COc1ncc(NC(=O)c2ccc(N3CCN(C)CC3)nc2)cc1S(=O)(=O)Nc1c(C)cccc1C [compound 2775]	181 to 352	–	–
COc1ncc(NC(=O)c2ncccc2C(=O)c2ccccc2)cc1S(=O)(=O)Nc1ccc(Cl)cc1 [compound 1195, 3-benzoyl-N-(5-(N-(4-chlorophenyl)sulfamoyl)-6-methoxypyridin-3-yl)picolinamide]	–	10 to 20	160 to 199
COc1ncc(NC(=O)c2cccc3c2CC(=O)N3)cc1S(=O)(=O)Nc1c(C)cccc1C [compound 2635]	181 to 352	–	–
CCc1noc(C)c1C(=O)Nc1cnc(OC)c(S(=O)(=O)Nc2c(C)cccc2C)c1 [compound 2752]	120 to 150	–	–
COc1ncc(NC(=O)c2cc3n(n2)CCCC3)cc1S(=O)(=O)Nc1c(C)cccc1C [compound 2573]	151 to 180	–	–
COc1cccc(OC)c1NS(=O)(=O)c1cc(NC(=O)c2csc(-c3ccccc3)n2)cnc1OC [compound 1386, N-(5-(N-(2,6-dimethoxyphenyl)sulfamoyl)-6-methoxypyridin-3-yl)-2-phenylthiazole-4-carboxamide]	–	< 10	200 to 300
COc1ncc(NC(=O)c2nnsc2C(C)C)cc1S(=O)(=O)Nc1c(C)cccc1C [compound 2734]	181 to 352	–	–
COc1ncc(NC(=O)c2csc(-c3cccc(OCC4COC(C)(C)O4)n3)n2)cc1S(=O)(=O)Nc1c(C)cccc1C (centres unmarked) [compound 2454]	–	< 10	119 to 159
COc1ncc(NC(=O)c2ccc(N3CCOCC3)cc2F)cc1S(=O)(=O)Nc1c(C)cccc1C [compound 2590]	181 to 352	–	–
CCOc1cc(NS(=O)(=O)c2cc(NC(=O)c3csc(-c4ccccc4)n3)cnc2OC)ccn1 [compound 1773]	–	20 to 100	119 to 159
COc1cc(C(=O)Nc2cnc(OC)c(S(=O)(=O)Nc3c(C)cccc3C)c2)ccn1 [compound 2575]	151 to 180	–	–
COc1ncc(NC(=O)c2ccc(N3CCN(C)CC3)cc2)cc1S(=O)(=O)Nc1c(C)cccc1C [compound 2578]	181 to 352	–	–
CCc1cc(C(=O)Nc2cnc(OC)c(S(=O)(=O)Nc3c(C)cccc3C)c2)n(C)n1 [compound 2600]	151 to 180	–	–
COc1ncc(NC(=O)c2conc2C)cc1S(=O)(=O)Nc1c(C)cccc1C [compound 2706]	120 to 150	–	–
COc1ncc(NC(=O)c2cc[nH]c3nccc2-3)cc1S(=O)(=O)Nc1c(C)cccc1C [compound 2735]	181 to 352	–	–
Cc1cccc(C)c1NS(=O)(=O)c1cc(NC(=O)c2csc(-c3ccccc3)n2)cnc1OCC(O)CO (centres unmarked) [compound 2418]	–	< 10	160 to 199
COc1ncc(NC(=O)c2csc(-c3ccccc3OCC(O)CO)n2)cc1S(=O)(=O)Nc1c(C)cccc1C (centres unmarked) [compound 2427]	–	< 10	200 to 300
COc1ncc(NC(=O)c2cncn2C)cc1S(=O)(=O)Nc1c(C)cccc1C [compound 2632]	120 to 150	–	–
COc1ncc(NC(=O)c2nc(C(F)(F)F)cs2)cc1S(=O)(=O)Nc1c(C)cccc1C [compound 2659]	151 to 180	–	–
COc1ncc(NC(=O)c2cnn(C3CCCCC3)c2)cc1S(=O)(=O)Nc1c(C)cccc1C [compound 2700]	181 to 352	–	–
COc1ncc(NC(=O)c2csc(-c3ccccc3)n2)cc1S(=O)(=O)Nc1ccccc1C [compound 1350, N-(6-methoxy-5-(N-(o-tolyl)sulfamoyl)pyridin-3-yl)-2-phenylthiazole-4-carboxamide]	–	< 10	119 to 159
COc1ncc(NC(=O)c2ccc(N(C)C)nc2)cc1S(=O)(=O)Nc1c(C)cccc1C [compound 2788]	181 to 352	–	–
COc1ncc(NC(=O)c2ccc(S(=O)(=O)NC(C)(C)C)cc2)cc1S(=O)(=O)Nc1c(C)cccc1C [compound 2561]	181 to 352	–	–
COc1ncc(NC(=O)c2ccc(N3CCN(C)CC3)cc2Cl)cc1S(=O)(=O)Nc1c(C)cccc1C [compound 2774]	181 to 352	–	–
COc1ncc(NC(=O)c2cnn3c2OCCC3)cc1S(=O)(=O)Nc1c(C)cccc1C [compound 2577]	120 to 150	–	–
